According to patent US7211566B2 (Universite De Sherbrooke, priority 2003, dated 2007):
Values belong to the molecule of their own block, whether it stands above or below them. Ends that are not written are not given here.

Columns and labels:
[1] = target: T1, angiotensin converting enzyme (ACE) (Oryctolagus cuniculus, UniProt P12822); experiment: In vitro metabolic stability against purified rabbit lung ACE; type: in vitro ADME; conditions: purified angiotensin converting enzyme from rabbit lung, pH 7.5, peptide 200 μM, 60 min at 37° C., mean ± SEM of 3, read-out: Peptide metabolism (%) Rabbit lung ACE
T1 construct: In Vitro Biochemical Stability Assays Against Purified Native Enzymes; purchased Sigma, St. Louis, Mo; host or cells: rabbit lung
T1 sequence (P12822 34-1310): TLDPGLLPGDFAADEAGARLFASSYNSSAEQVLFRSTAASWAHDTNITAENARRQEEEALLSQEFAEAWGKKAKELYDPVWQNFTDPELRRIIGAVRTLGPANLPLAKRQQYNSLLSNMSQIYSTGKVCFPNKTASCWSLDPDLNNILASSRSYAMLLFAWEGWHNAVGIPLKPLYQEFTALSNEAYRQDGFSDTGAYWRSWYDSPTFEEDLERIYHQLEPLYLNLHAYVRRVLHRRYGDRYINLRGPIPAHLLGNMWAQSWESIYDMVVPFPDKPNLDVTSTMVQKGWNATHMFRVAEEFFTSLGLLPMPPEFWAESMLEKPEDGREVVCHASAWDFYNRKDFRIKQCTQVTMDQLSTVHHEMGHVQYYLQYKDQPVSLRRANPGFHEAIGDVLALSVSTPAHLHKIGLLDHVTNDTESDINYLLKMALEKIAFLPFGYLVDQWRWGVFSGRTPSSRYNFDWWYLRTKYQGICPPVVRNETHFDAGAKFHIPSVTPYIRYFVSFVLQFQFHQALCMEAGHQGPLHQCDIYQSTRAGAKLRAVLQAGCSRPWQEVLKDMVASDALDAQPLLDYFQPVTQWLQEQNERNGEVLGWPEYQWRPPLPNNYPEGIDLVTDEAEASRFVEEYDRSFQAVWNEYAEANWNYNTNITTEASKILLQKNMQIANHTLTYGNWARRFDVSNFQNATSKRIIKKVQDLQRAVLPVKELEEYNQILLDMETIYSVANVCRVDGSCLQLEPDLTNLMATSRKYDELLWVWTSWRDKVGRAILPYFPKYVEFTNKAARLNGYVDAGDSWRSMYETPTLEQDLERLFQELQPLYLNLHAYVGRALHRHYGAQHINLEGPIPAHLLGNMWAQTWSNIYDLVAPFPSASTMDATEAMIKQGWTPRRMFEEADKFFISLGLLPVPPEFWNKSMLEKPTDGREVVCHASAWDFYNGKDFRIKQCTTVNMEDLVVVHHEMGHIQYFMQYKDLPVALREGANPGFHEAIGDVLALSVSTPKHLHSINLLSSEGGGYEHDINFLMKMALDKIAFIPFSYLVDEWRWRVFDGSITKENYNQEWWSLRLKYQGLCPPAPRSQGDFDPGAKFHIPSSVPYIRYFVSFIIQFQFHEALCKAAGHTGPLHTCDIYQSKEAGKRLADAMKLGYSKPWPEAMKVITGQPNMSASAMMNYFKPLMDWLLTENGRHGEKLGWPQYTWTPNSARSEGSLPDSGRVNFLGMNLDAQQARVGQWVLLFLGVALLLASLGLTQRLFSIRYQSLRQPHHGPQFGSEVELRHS
Procedure: (§1) These assays were performed using three enzyme preparations: purified angiotensin converting enzyme (ACE; from rabbit lung), human plasma as a, source of aminopeptidase M (AmM) and human platelets as a source of aminopeptidase P (AmP).
Purified ACE from rabbit lungs (Sigma, St. Louis, Mo.) was dissolved in PBS (50 mM, pH 7.5, containing 300 mM NaCl and 10 μM ZnCl2; the final concentration of ACE was 45 μg/ml). Each of the peptide antagonists (200 μM) was incubated for 60 min at 37° C. with ACE (8.5 μl) (total volume medium, 187.5 μl). The enzymatic reaction was then terminated by boiling.
The experimental protocol for the measurement of ACE activity has been described elsewhere (Drapeau et a). 1993, J Pharmacol Exp Ther 266, 192–198; Gobeil et al., 1996, supra).

[2] = target: T2, aminopeptidase P (AmP) (Homo sapiens, UniProt Q9NQW7); experiment: In vitro metabolic stability against human platelets AmP; type: in vitro ADME; conditions: mean ± SEM of 3 experiments
T2 construct: from tissue; host or cells: human platelets, freeze-thawed and sonicated, 43 000 x g supernatant
T2 sequence (Q9NQW7 whole entry): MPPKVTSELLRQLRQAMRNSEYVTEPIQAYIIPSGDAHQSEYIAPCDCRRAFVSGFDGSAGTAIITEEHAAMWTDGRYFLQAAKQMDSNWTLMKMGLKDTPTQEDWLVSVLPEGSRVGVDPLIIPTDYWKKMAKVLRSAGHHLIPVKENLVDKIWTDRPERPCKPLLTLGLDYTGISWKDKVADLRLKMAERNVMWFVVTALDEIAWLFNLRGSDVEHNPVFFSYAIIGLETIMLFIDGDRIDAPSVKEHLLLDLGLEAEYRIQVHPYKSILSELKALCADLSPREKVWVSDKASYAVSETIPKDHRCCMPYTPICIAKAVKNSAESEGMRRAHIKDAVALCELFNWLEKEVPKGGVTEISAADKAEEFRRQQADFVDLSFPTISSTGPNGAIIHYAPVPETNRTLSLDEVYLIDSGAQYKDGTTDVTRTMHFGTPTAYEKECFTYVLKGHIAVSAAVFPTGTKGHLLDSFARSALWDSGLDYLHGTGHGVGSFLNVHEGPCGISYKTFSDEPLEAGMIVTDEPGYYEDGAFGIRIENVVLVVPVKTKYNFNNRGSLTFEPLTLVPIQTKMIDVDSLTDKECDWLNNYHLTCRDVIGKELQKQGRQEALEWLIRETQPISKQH
Procedure: as §1
Human platelet AmP was prepared as described by Maggiora et al. (1999, J Med Chem 42, 2394–2402). Human platelets (40 ml) were centrifuged at 250×g for 7 min at room temperature. The resulting supernatant was recentrifuged at 2790×g for 15 min at room temperature. Pellets were collected, resuspended in 40 ml of phosphate-buffered saline (PBS) containing 3.5% of sodium citrate, and then re-centrifuged at 2790×g for 15 min at room temperature. This washing step was repeated. Pellets were resuspended in 4 ml of PBS-sodium citrate, snap-frozen in liquid nitrogen, thawed at 37° C., sonicated briefly, and then centrifuged at 43 000×g for 2 h at 4° C. (Sorvall RC 5B, ss-34 rotor). The resulting supernatant was used for enzyme assays as described in Neugebauer et al. (Neugebauer et al. 2002, supra).

[3] = target: T3, aminopeptidase M (AmM) (Homo sapiens, UniProt P15144); experiment: In vitro metabolic stability against human plasma AmM; type: in vitro ADME; conditions: male, human plasma as source of aminopeptidase M, pH 7.5, peptide 200 μM, 60 min incubation, mean ± SEM of 3, read-out: Peptide metabolism (%) Human plasma AmM
T3 construct: incubated for 60 min with 50 μl of human plasma; from tissue; host or cells: human plasma from heparinized blood of healthy male volunteers
T3 sequence (P15144 whole entry): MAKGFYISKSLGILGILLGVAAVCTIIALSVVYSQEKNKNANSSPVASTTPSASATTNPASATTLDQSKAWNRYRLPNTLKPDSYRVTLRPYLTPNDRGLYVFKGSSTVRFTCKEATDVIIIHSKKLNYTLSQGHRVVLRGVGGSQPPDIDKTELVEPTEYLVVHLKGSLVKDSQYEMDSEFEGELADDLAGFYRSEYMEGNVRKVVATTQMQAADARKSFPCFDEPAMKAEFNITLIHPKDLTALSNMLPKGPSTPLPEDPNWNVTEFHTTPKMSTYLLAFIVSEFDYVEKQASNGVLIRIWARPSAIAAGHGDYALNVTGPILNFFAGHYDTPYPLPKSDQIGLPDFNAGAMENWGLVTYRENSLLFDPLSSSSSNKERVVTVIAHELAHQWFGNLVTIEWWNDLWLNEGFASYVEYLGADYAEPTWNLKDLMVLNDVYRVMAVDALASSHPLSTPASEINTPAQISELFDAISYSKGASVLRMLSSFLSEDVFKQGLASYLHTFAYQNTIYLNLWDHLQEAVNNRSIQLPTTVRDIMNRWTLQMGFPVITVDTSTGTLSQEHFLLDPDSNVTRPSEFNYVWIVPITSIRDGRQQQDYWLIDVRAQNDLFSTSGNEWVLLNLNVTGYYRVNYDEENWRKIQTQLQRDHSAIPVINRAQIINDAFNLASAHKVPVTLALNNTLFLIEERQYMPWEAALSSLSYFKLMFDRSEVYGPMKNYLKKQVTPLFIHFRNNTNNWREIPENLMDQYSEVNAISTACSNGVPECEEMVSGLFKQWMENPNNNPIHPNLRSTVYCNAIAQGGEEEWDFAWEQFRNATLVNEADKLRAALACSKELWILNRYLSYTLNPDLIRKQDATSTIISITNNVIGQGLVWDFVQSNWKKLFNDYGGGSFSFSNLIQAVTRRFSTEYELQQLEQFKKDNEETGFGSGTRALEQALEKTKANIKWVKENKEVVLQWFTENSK
Procedure: as §1
Human plasma AmM was prepared as previously described (Gobeil et al., 1999, Hypertension, 33, 823–829). Blood (5 ml) was withdrawn from healthy normotensive male Caucasian volunteers and put into heparinized tube (200 U). Blood samples were centrifuged at 1500 rpm for 15 min in a refrigerated tabletop centrifuge. The peptide antagonists (200 μM) were placed in a PBS buffer (50 mM, pH 7.5, containing 300 mM NaCl) and incubated for 60 min with 50 μl of human plasma (total volume of the medium, 375 μl). Immersing samples into boiling water and then cooling them on ice stopped the hydrolysis reaction. Control experiments have shown that ≈70% of the kininase activity that is present in the human plasma is abolished by amastatin (1 μM) and that the incubation of Lys-[Leu^8]desArg^9BK with this enzymatic preparation led to the production of [Leu^8]desArg^9BK as detected by electrospray mass spectrometry.

[4] = target: T4, BKB1 receptor (Homo sapiens, UniProt P46663); experiment: Isolated human umbilical vein (hUV) organ bath, antagonist potency pA2; type: cell-based; set-up: the hUV that contains BKB1 and BKB2 receptors; from tissue; host or cells: isolated human umbilical vein (hUV)
T4 sequence (P46663 1-353): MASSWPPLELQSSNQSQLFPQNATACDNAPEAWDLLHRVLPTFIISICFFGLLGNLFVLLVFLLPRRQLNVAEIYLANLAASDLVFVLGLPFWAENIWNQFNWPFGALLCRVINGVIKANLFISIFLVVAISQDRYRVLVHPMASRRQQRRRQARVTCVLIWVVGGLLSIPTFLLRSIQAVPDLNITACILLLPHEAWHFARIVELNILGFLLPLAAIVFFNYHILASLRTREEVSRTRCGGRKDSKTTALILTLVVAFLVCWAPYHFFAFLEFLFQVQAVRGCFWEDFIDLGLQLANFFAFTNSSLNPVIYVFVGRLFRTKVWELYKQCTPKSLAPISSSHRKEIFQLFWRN
Procedure: (§2) Selected antagonists were tested for activities in three isolated organs: (1) the rabbit aorta (rbA), (2) the human umbilical vein (hUV) and (3) the rabbit jugular vein (rbJV).
(§3) All details regarding the procurements of human umbilical cords and rabbit vessels as well as, the procedures for preparing the isolated organs and the experimental protocols are described in these respective publications: rbA (Rioux et al. 1973, Can J Physiol Pharmacol 51, 114–121); hUV (Gobeil et al. 1996, Br J Pharmacol 118, 289–294), and rbJV (Gaudreau et al. 1981, Can J Physiol Pharmacol 59, 371–379).
(§4) The rabbit jugular vein (a pure BKB2 receptor system) was used to exclude any action of the new compounds on the BKB2 receptor and thus establish their selectivity. All tissues were treated with captopril (1 μM) to prevent the degradation of the peptidic agonists.
(§5) Repeated applications of a single and double concentration of BK (on rbJV,) or of desArg^9BK (rbA and hUV) were made in the absence and in presence of the various peptides to evaluate their apparent affinities as antagonists, in terms of pA2 (-log10 of the molar concentration of antagonist that reduces the effect of a double concentration of agonist to that of a single one) (Schild 1947, Br J Pharmacol 2, 189–206).

[5] = target: T5, BKB2 receptor (Oryctolagus cuniculus, UniProt Q28642); experiment: Isolated rabbit jugular vein (rbJV) organ bath, antagonist potency pA2; type: cell-based; conditions: BK as agonist
T5 construct: The rabbit jugular vein (a pure BKB2 receptor system); from tissue; host or cells: isolated rabbit jugular vein (rbJV)
T5 sequence (Q28642 1-367): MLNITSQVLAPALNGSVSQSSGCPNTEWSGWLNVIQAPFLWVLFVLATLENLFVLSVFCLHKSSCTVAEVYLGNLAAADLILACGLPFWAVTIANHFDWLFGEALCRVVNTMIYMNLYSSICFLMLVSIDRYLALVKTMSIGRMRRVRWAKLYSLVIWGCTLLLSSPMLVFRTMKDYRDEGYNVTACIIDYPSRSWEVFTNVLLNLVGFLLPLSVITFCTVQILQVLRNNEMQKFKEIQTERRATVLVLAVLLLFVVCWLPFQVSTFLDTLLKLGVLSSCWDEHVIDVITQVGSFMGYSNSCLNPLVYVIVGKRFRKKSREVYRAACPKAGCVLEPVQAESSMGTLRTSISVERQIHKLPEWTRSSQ
Procedure: as §2, §3, §4, §5

[6] = target: T6, BKB1 receptor (Oryctolagus cuniculus, UniProt P48748); experiment: Isolated rabbit aorta (rbA) organ bath, antagonist potency pA2; type: cell-based; conditions: rabbit aorta without endothelium; mean ± SEM of 4–7 experiments
T6 construct: The rabbit aorta without endothelium (which contains only the BKB1 receptor); from tissue; host or cells: isolated rabbit aorta (rbA) without endothelium
T6 sequence (P48748 1-352): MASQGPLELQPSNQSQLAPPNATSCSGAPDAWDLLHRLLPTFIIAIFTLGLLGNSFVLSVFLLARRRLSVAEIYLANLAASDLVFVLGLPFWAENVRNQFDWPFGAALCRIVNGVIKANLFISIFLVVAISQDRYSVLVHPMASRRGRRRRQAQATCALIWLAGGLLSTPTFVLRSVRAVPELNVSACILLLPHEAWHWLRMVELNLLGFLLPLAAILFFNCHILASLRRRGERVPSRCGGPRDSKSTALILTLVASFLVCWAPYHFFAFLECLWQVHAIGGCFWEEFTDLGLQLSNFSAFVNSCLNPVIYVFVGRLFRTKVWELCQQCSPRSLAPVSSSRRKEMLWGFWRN
Procedure: as §2, §3
The rabbit aorta without endothelium (which contains only the BKB1 receptor) was used to determine the antagonistic activities of each compound.
as §4, §5

[7] = tested on: angiotensin converting enzyme (ACE); experiment: Purified ACE from rabbit lungs (Sigma, St. Louis, Mo.) dissolved in PBS (50 mM, pH 7.5, containing 300 mM NaCl and 10 μM ZnCl2); conditions: 37° C., up to 60 min
[8] = human plasma as a source of aminopeptidase M (AmM); conditions: up to 60 min
[9] = tested on: carboxypeptidases of the N type (CPN); conditions: cited from earlier work
[10] = tested on: carboxypeptidases of the M type (CPM); conditions: cited from earlier work

Molecule: CC(C)C[C@H](NC(=O)[C@@H]1CCCN1C(=O)[C@H](CO)NC(=O)[C@H](Cc1ccccc1)NC(=O)CNC(=O)[C@@H]1CCCN1C(=O)[C@@H]1CCCN1C(=O)[C@H](CCCN=C(N)N)NC(=O)[C@@H](N)CCCCN)C(=O)O [Lys-[Leu^8]desArg^9-BK, Lys-[Leu^8] desArg^9BK, reference compound]
metabolised at 1 h, 200 µM [1]: 93 ± 3%
Peptide metabolism (%) Human platelets AmP [2]: 99 ± 1%
metabolised at 1 h, 200 µM [3]: 100%
affinity higher than that of [Leu^8]desArg^9BK ([4]; BKB1 receptor antagonist affinity, effect of N-terminal Lys): at least 1.5 log units

Molecule: Ac-Lys[Oic^2,(α-Me)Phe^5,D-βNal^7,Ile^8]desArg^9BK
not cleaved [7]: Peptide metabolism 0 % (60 min)
not cleaved [8]: Peptide metabolism 0 % (60 min)

Molecule: Ac-Orn[Oic^2,Oic^3(α-Me)Phe^5,D-βNal^7,Ile^8]desArg^9BK
Antagonist potencies (pA2) BKB2-R rbJV [5]: <6.00
Antagonist potencies (pA2) BKB1-R rbA [6]: 8.30 ± 0.08

Molecule: RPPGFSPFR
cleaved bond [9]: Phe8-Arg9
cleaved bond [10]: Phe8-Arg9

Continued, values first:

Antagonist potencies (pA2) BKB2-R rbJV [5]: <6.00
Antagonist potencies (pA2) BKB1-R rbA [6]: 8.40 ± 0.12
Antagonist potencies (pA2) BKB1-R hUV ([4]; human umbilical vein treated with HOE 140, mean ± SEM of 4–7 experiments): 8.49 ± 0.10
Molecule: Ac-Lys-[D-βNal^7, Ile^8] desArg^9BK [Ac-Lys-[D-βNal^7, Ile^8]desArg^9-BK, reference compound]

cleaved bond [7]: Phe5-Ser6
fragment found [8]: [Leu^8]desArg^9BK
Molecule: Lys-[Leu^8] desArg^9BK
